# Laboratory results as given in US8426684B2 (Washington State University Research Foundation, priority 2004, dated 2013).
# Where “and” joins values, the source holds several entries; their conditions need not be identical. Equal values may be shown once.
# B1: menthone: (3R)-(−)-menthol reductase (SEQ ID NO:2) (Mentha x piperita) (protein)
# chain: MADTFTQRYALVTGANKGIGFEICRQLASKGMKVILASRNEKRGIEARERLLKESRSISDDDVVFHQLDVADPASAVAVAHFIETKFGRLDILVNNAGFTGVAIEGDISVYQECLEANIIAAQGGQAHPFHPKTTGRLIETLEGSKECIETNYYGTKRITETLIPLLQKSDSPTIVNVSSTFSTLLLQPNEWAKGVFSSNSLNEGKVEEVLHEFLKDFIDGKLQQNHWPPNFAAYKVSKAAVNAYTRIIARKYPSFCINSVCPGFVRTDICYNLGVLSEAEGAEAPVKLALLPDGGPSGSFFSREEALSLY
# B2: reductase (SEQ ID NO:2): recombinant peppermint menthone: (3R)-(−)-menthol reductase, 311 residue protein encoded by cDNA SEQ ID NO:1, expressed in E. coli (protein)
# chain: B1 chain
# modifications: Mentha Piperita
# Experiments:
# [1] = biological target: T1, menthone: (3R)-(−)-menthol reductase (SEQ ID NO:2) (Mentha x piperita, UniProt Q5CAF4); experiment: Substrate specificity of the reductase; assay type: biochemical; conditions: 100 μM monoterpenone substrate, 500 μM NADPH, 0.5 μg reductase, pH optimum, overnight incubation
# [2] = biological target: T1, menthone: (3R)-(−)-menthol reductase (SEQ ID NO:2); conditions: at saturation under linear reaction conditions
# Protocol: Assay mixtures containing 2 ml of 40 mM KH2PO4 at pH 7, with 10 mM β-mercaptoethanol were combined with 500 μM cofactor and concentrations of monoterpene substrate ranging from 2.5 μM to 1 mM, or with 100 μM monoterpene substrate, and concentrations of cofactor ranging from 0.1 μM to 1 mM, and preheated to 31° C. before initiation of the reaction by enzyme addition (0.008 to 1.3 μg protein). The reactions were quenched after 6 to 9 min by addition of 0.5 ml pentane containing camphor as internal standard (6.6 μM) followed by vigorous mixing and cooling on ice; quantitation of products in the pentane extract was achieved by capillary-GC using the conditions described above with peak area quantification using the internal standard for normalization. […] Kinetic constants, representing the average of at least two independent experiments, were determined by nonlinear regression analysis of Michaelis-Menten plots using Enzyme Kinetics, v 1.11 (Trinity Software, Plymouth, N.H.). The values reported are the means±standard error.
# [3] = biological target: T1, menthone: (3R)-(−)-menthol reductase (SEQ ID NO:2); experiment: In vitro demonstration of menthone reductase activity (product analysis by GC, GC-MS); assay type: biochemical; conditions: partially purified recombinant protein
# Protocol: Bacteria harboring the pSBET-reductase plasmid or the pET-reductase plasmid were grown in 5 ml cultures of Luria-Bertani (LB) media to an OD600 of 0.8-1.0, at which time the cultures were cooled to 10° C., isopropyl-β-D-thiogalactopyranoside was added to 0.25 mM, and growth was continued for 12-18 h at 10° C. with shaking at 220 rpm. Cells were pelleted by centrifugation for 25 min at 2500 g and 4° C., and then resuspended in 1 ml resuspension buffer (50 mM Mopso, pH 7, with 10% (v/v) glycerol, 10% (w/v) sorbitol, and 10 mM […]) containing 0.4 mg/ml lysozyme. Following incubation on ice for 30 min, the extract was sonicated for 10 sec with a Virtis sonicator using a microtip probe at medium power. Cell debris was pelleted by centrifugation at 27,000 g at 4° C. for 30 min, and the supernatant, containing the operationally soluble reductase, was used for initial characterization.
# Following incubation with gentle shaking at 31° C. for 12 h, 0.5 ml of pentane was added and the mixture was vigorously mixed to extract the monoterpene products which were analyzed by GC and GC-MS as described above. […] Following 15 h of shaking (250 rpm) at 15-20° C., these cultures were transferred to 0.5 L round-bottom flasks, to which 6.6 μmol of (+)-camphor was added as an internal standard, and the mixture was steam distilled and the distillate analyzed as described above.
# [4] = substrate: CC(C)[C@H]1CC[C@@H](C)CC1=O; experiment: purified protein, by the assay type; conditions: other: monoterpene substrate, NADPH as cofactor, reductase expressed from pSBET, pH 7, 31° C., means±standard error
# [5] = substrate: CC(C)[C@@H]1CC[C@@H](C)CC1=O; experiment: purified protein, by the assay type; conditions: other: monoterpene substrate, NADPH as cofactor, reductase expressed from pSBET, pH 7, 31° C., means±standard error
# [6] = biological target: T1, menthone: (3R)-(−)-menthol reductase (SEQ ID NO:2); experiment: pH optimum of the reductase; assay type: biochemical; conditions: 25 μM menthone, 500 μM NADPH, 0.5 μg protein, 6 min at 31° C.
# [7] = from (+)-isomenthone in the presence of NADPH
# [8] = from (−)-menthone in the presence of NADPH
molecule,measurement,setting,value
C=C(C)[C@H]1CC[C@@H](C)CC1=O (relative stereo) [(+)-cis-isopulegone],reduction of alternate substrate to the corresponding monoterpenols,[1],only able to detectably reduce (+)-menthone
"C=C(C)C1CC=C(C)C(=O)C1 (single isomer, unassigned; (-)) [(−)-carvone]",reduction of alternate substrate to the corresponding monoterpenols,[1],only able to detectably reduce (+)-menthone
"C=C(C)C1CCC(C)=CC1=O (single isomer, unassigned; (-)) [(−)-isopiperitenone]",reduction of alternate substrate to the corresponding monoterpenols,[1],only able to detectably reduce (+)-menthone
CC(C)=C1CC[C@@H](C)CC1=O [(+)-pulegone],reduction of alternate substrate to the corresponding monoterpenols,[1],only able to detectably reduce (+)-menthone
NC(=O)C1=CN([C@@H]2O[C@H](COP(=O)(O)OP(=O)(O)OC[C@H]3O[C@@H](n4cnc5c(N)ncnc54)[C@H](O)[C@@H]3O)[C@@H](O)[C@H]2O)C=CC1 [NADH],turnover with NADH as cofactor compared with NADPH,[2],less than 20%
"CC(C)[C@H]1CC[C@@H](C)CC1=O [isomenthone, (+)-isomenthone]",product share (3R)-(+)-neoisomenthol,[3]; [7],87%
same,product share (3S)-(+)-isomenthol,[3]; [7],13%
"CC(C)[C@@H]1CC[C@@H](C)CC1=O [menthone, (−)-menthone]",product share (3R)-(−)-menthol,[3]; [8],95%
same,product share (3S)-(+)-neomenthol,[3]; [8],5%
(+)-menthone,reduction of alternate substrate to the corresponding monoterpenols,[1],detectably reduce
B1,Km,[4],41 ± 5 µM
same,Km,[5],3.0 ± 0.6 µM
same,kcat,[5],0.6 s⁻¹
B2,pH of half maximal activities,[6],4.5 and 8.5
same,pH optimum,[6],7.0
